Measurements: ChEMBL document CHEMBL1132798 (Bioorg Med Chem Lett, 2000)
pKi: −log10 of the molar value. Active and inactive are the calls of the source. No cut-off for these calls is given here.

Legend:
Mus musculus [1] = organism: Mus musculus; test: Compound was evaluated for antinociceptive activity in mouse; IA means inactive; assay type: functional, organism-based
[2] = target: Delta-type opioid receptor (Rattus norvegicus, UniProt P33533); test: Compound was evaluated for its ability to displace [3H]p-CI-DPDPE in C6 glioma cells expressing the cloned Opioid receptor delta 1; assay type: cell-based
[3] = target: Kappa-type opioid receptor (Rattus norvegicus, UniProt P34975); test: Compound was evaluated for its ability to displace [3H]U-69593 in CHO cells expressing the cloned Opioid receptor kappa 1; assay type: cell-based
Mus musculus [4] = organism: Mus musculus; test: Compound was evaluated for antinociceptive activity in mouse using hot plate assay; assay type: functional
Mus musculus [5] = organism: Mus musculus; test: Compound was evaluated for antinociceptive activity in mouse using paraphenylquinone assay; assay type: functional
Mus musculus [6] = organism: Mus musculus; test: Compound was evaluated for antinociceptive activity in mouse using tail flick assay; assay type: functional
Mu-type opioid receptor = Mu-type opioid receptor (Rattus norvegicus, UniProt P33535); test: Compound was evaluated for its ability to displace [3H]DAMGO in C6 glioma cells expressing the cloned Opioid receptor mu 1; assay type: cell-based
[7] = target: Opioid receptors; mu & delta (Homo sapiens) (UniProt P41143+P35372); test: Ratio of binding affinity to mu receptor to that of delta receptor; assay type: protein assay
Mus musculus [8] = organism: Mus musculus; test: Compound was evaluated for antinociceptive activity in mouse; assay type: functional
Mus musculus [9] = organism: Mus musculus; test: Compound was evaluated for antinociceptive activity in mouse using hot plate assay; Inactive; assay type: functional, organism-based
Mus musculus [10] = organism: Mus musculus; test: Compound was evaluated for antinociceptive activity in mouse using paraphenylquinone assay; Inactive; assay type: functional, organism-based
Mus musculus [11] = organism: Mus musculus; test: Compound was evaluated for antinociceptive activity in mouse using tail flick assay; Inactive; assay type: functional, organism-based
Mus musculus [12] = organism: Mus musculus; test: Compound was evaluated for antinociceptive activity in mouse using tail flick vs morphine assay; Inactive; assay type: functional, organism-based
Mus musculus [13] = organism: Mus musculus; test: Compound was evaluated for antinociceptive activity in mouse using tail flick vs morphine assay; assay type: functional

Opioid receptors; mu & delta (Homo sapiens), sequence (P35372 whole entry, looked up): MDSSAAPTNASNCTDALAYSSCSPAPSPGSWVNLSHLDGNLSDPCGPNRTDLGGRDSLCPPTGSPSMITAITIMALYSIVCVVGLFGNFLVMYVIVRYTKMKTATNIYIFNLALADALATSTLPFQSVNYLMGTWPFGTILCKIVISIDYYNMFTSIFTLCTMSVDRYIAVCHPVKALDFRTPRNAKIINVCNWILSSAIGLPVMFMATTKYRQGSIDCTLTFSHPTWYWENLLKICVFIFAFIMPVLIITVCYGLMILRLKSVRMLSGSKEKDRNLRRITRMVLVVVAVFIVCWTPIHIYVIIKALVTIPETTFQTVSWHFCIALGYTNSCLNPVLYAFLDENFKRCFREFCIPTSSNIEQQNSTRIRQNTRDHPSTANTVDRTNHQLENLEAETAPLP
Opioid receptors; mu & delta (Homo sapiens), sequence (P41143 whole entry, looked up): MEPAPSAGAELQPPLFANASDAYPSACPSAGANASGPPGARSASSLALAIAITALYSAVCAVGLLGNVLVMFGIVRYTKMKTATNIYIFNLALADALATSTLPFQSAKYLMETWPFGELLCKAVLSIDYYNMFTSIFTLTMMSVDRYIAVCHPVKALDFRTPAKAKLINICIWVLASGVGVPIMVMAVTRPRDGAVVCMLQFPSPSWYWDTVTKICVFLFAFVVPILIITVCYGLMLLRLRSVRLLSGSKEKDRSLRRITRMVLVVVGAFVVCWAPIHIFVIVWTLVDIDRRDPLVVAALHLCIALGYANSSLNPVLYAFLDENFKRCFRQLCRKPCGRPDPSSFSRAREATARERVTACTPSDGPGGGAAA
Kappa-type opioid receptor, sequence (P34975 whole entry): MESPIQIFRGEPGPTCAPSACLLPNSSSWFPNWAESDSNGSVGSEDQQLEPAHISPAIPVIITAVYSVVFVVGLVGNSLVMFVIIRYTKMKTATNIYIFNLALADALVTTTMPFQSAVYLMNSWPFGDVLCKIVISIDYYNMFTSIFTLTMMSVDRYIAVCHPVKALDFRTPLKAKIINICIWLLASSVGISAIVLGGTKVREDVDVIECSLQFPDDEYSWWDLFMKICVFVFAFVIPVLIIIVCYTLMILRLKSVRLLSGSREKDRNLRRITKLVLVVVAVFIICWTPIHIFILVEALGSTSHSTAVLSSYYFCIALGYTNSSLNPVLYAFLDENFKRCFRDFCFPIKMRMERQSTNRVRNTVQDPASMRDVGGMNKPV
Mu-type opioid receptor, sequence (P33535 whole entry): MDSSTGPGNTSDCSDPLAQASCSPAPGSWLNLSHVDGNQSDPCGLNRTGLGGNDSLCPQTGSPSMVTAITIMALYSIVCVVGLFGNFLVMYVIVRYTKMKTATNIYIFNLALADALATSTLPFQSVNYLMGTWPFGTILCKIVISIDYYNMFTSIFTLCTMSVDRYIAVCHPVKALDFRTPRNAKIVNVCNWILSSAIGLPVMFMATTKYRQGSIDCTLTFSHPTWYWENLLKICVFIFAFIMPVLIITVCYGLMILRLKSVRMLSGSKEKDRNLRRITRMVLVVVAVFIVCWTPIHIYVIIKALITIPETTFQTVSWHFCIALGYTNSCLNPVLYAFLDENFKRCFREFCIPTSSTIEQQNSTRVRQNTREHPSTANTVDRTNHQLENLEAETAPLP
Delta-type opioid receptor, sequence (P33533 whole entry): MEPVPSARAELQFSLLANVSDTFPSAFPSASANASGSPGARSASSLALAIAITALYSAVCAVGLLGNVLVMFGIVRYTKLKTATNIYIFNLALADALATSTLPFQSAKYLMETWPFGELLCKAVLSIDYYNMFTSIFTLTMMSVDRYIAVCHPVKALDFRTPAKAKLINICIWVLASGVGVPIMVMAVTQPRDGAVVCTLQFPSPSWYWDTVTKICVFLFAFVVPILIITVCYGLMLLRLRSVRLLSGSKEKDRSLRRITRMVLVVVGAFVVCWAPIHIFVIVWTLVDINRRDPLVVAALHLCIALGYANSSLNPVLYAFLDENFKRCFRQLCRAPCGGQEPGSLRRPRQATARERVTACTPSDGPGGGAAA

Structure (SMILES): Oc1ccc2c3c1O[C@H]1c4[nH]c5ccccc5c4C[C@@]4(O)[C@@H](C2)N(CC2CC2)CC[C@]314 [NALTRINDOLE]
- Activity (Mus musculus [1]): inactive
- pKi [2]: 10.40
- pKi [3]: 8.24

Structure (SMILES): Oc1ccc2c3c1OC1c4[nH]c5ccccc5c4C[C@@]4(O)[C@@H](C2)N(CCC2CCCCC2)CCC314 (some centres undefined)
- Activity (Mus musculus [4]): 2.42 mg/kg
- Activity (Mus musculus [5]): 0.39 mg/kg
- Activity (Mus musculus [6]): 3.86 mg/kg
- pKi [2]: 6.74
- pKi [3]: 6.42
- pKi (Mu-type opioid receptor): 8.14
- Ratio [7]: 0

Structure (SMILES): Oc1ccc2c3c1O[C@H]1c4[nH]c5c(c4C[C@@]4(O)[C@@H](C2)N(CC2CC2)CC[C@]314)C[C@@]1(O)[C@H]2Cc3ccc(O)c4c3[C@@]1(CCN2CC1CC1)[C@H]5O4
- Activity (Mus musculus [1]): inactive

Structure (SMILES): CN1CC[C@]23c4c5ccc(O)c4O[C@H]2[C@@H](O)C=C[C@H]3[C@H]1C5.CN1CC[C@]23c4c5ccc(O)c4O[C@H]2[C@@H](O)C=C[C@H]3[C@H]1C5.O=S(=O)(O)O
- Activity (Mus musculus [4]): 3.1 mg/kg
- Activity (Mus musculus [5]): 0.4 mg/kg
- Activity (Mus musculus [6]): 0.73 mg/kg

Structure (SMILES): CCCN(CC1CC1)C1Cc2ccc(O)c3c2C2C(O3)C(NC(=O)/C=C/C(=O)OC)CC[C@]21O (some centres undefined)
- AD50 (Mus musculus [8]): 1.25 ug brain-1

Structure (SMILES): Oc1ccc2c3c1OC1c4[nH]c5ccccc5c4C[C@@]4(O)[C@@H](C2)N(Cc2ccccc2)CCC314 (some centres undefined)
- pKi [2]: 6.94
- pKi [3]: 6.87
- pKi (Mu-type opioid receptor): 5.27
- Ratio [7]: 46

Structure (SMILES): Oc1ccc2c3c1OC1c4[nH]c5ccccc5c4C[C@@]4(O)[C@@H](C2)N(CC2CCCCC2)CCC314 (some centres undefined)
- Activity (Mus musculus [9]): inactive
- Activity (Mus musculus [10]): inactive
- Activity (Mus musculus [11]): inactive
- Activity (Mus musculus [12]): inactive
- pKi [2]: 7.02
- pKi [3]: 5.95
- pKi (Mu-type opioid receptor): 5.72
- Ratio [7]: 20

Structure (SMILES): C=CCN1CC[C@]23c4c5ccc(O)c4O[C@H]2C(=O)CC[C@@]3(O)[C@H]1C5 [NALOXONE]
- AD50 (Mus musculus [8]): 0.1
- Activity (Mus musculus [13]): 0.04 mg/kg
